Our source for the IC50 values is patent US20100081825A1, “1-NAPHTHYL ALKYLPIPERIDINE DERIVATIVE” (Taisho Pharmaceutical Co Ltd, priority 2006, published 2010).

The term IC50 denotes the concentration at which inhibition is half-maximal.

Counter-ions that a name gives are not always drawn.

The target of this assay is T1, MCH1R (Homo sapiens, UniProt Q99705).
T1 construct: IC50; other: cells stably expressing non-endogenous active MCH1R; 50 nM MCH; Fluo-4 calcium, FDSS6000; list of compounds i
Put plainly: MCH1R calcium evaluation test (FDSS assay, inhibition of MCH-induced intracellular calcium increase). As to conditions: cells stably expressing non-endogenous active MCH1R; 50 nM MCH; Fluo-4 calcium, FDSS6000. The format is cell-based. From the text: MCH1R Calcium Evaluation Test
An FDSS assay can measure the intracellular calcium concentration and can evaluate the Gq-coupled receptor activity using the calcium concentration as an index. For example, the assay can determine whether an analyte is an antagonist, an inverse agonist or an agonist for a Gq-coupled receptor. The FDSS6000™ system (Hamamatsu Photonics K.K.) is designed to perform evaluation based on functionality such as measurement of intracellular calcium for high-throughput screening. Intracellular calcium release by activation of a Gq-coupled receptor can be fluorometrically measured by incorporating a calcium indicator (such as Fluo4) into cells. On the other hand, the assay cannot measure the activation of Gi- and Go-coupled receptors, because the activation is not associated with calcium signaling pathways.
Intracellular fluorescence can be rapidly and successively measured in a 96-well microplate or a 384-well microplate using a fluorometric imaging plate reader system. FDSS6000™ can simultaneously measure fluorescence in all wells sensitively, accurately and by seconds. This system is ideal for functional analysis in cells such as monitoring of an intracellular calcium flow generated within several seconds after activation of a Gq-coupled receptor.
On the day before the test, cells stably expressing non-endogenous active MCH1R were seeded into a 96-well microplate at 3×10^4 cells per well. 100 μL per well of a medium (Dulbecco's modified Eagle medium containing 10% fetal bovine serum, 2 mM glutamine, 1 mM sodium pyruvate and 0.5 mg/mL G418, pH 7.4) was used for culture. On the day of the test, the medium was removed and an assay buffer {Hank's balanced salt solution containing 20 mM HEPES, 0.5 mM probenecid, 0.05 mg/mL amaranth and 0.2% bovine serum albumin (BSA), pH 7.4} containing 2 μM Fluo-4-AM and 0.04% Pluronic F127 was added at 100 μL per well, followed by incubation in a 5% CO2 incubator at 37° C. for one hour. Thereafter, the buffer was removed and an assay buffer containing each concentration of the test compound was newly added at 150 μL per well, followed by incubation in a 5% CO2 incubator at 37° C. for 30 minutes. An assay buffer containing each concentration of MCH was added at 50 μL per well, and transient changes in the intracellular calcium concentration induced by MCH were monitored using FDSS6000™ at Ex. 488 nm and Em. 530 nm for 180 seconds. In testing the antagonistic activity of the analyte, MCH was added to a final concentration of 50 nM. An inhibition curve was prepared with various concentrations of the analyte, and the concentration of the analyte inhibiting 50% of the increase in intracellular calcium when 50 nM MCH was added (IC50 value) was calculated using data analysis software Origin Ver. 6.
(In general: Calcium assays in cells follow changes in intracellular calcium, usually with a dye or a luminescent sensor.)
With `COc1cccc(C(=O)NC2CCN(Cc3ccc4ccc(CCO)cc4c3)CC2)c1` [Example 120, N-(1-{[7-(2-hydroxyethyl)-2-naphthyl]methyl}piperidin-4-yl)-3-methoxybenzamide], the IC50 amounted to 7.41 nM.
The same measure for `COCCOCc1ccc2ccc(CN3CCC(NC(=O)c4cccc(OC)c4)CC3)cc2c1` [Example 26, 3-Methoxy-N-[1-({7-[(2-methoxyethoxy)methyl]-2-naphthyl}methyl)piperidin-4-yl]benzamide]: 5.67 nM; for `CNCCNCc1ccc2ccc(CN3CCC(NC(=O)c4cccc(OC)c4)CC3)cc2c1` [Example 67, 3-Methoxy-N-(1-{[7-({[2-(methylamino)ethyl]amino}methyl)-2-naphthyl]methyl}piperidin-4-yl)benzamide trihydrochloride]: 6.51 nM.
The value for `COc1cccc(C(=O)NC2CCN(Cc3ccc4ccc(CNCCN(C)C)cc4c3)CC2)c1` [Example 49, N-(1-{[7-({[2-(Dimethylamino)ethyl]amino}methyl)-2-naphthyl]methyl}piperidin-4-yl)-3-methoxybenzamide] was 7.08 nM.
For `COc1cccc(C(=O)NC2CCN(Cc3ccc4ccc(CNCCN5CCCC5)cc4c3)CC2)c1` [Example 48, 3-Methoxy-N-{1-[(7-{[(2-pyrrolidin-1-ylethyl)amino]methyl}-2-naphthyl)methyl]piperidin-4-yl}benzamide], the half-maximal inhibitory concentration (IC50) is 9.68 nM.
The value for `COc1cccc(C(=O)NC2CCN(Cc3ccc4ccc(CNCCN)cc4c3)CC2)c1` [Example 64, N-{1-[(7-{[(2-Aminoethyl)amino]methyl}-2-naphthyl)methyl]piperidin-4-yl}-3-methoxybenzamide trihydrochloride] was 7.14 nM.
With `CCOCc1ccc2ccc(CN3CCC(NC(=O)c4ccc(F)c(Cl)c4)CC3)cc2c1` [Example 6, 3-chloro-N-(1-{[7-(ethoxymethyl)-2-naphthyl]methyl}piperidin-4-yl)-4-fluorobenzamide], the half-inhibitory concentration (IC50) turned out to be 3.54 nM.
The value for `COCc1ccc2ccc(CN3CCC(NC(=O)c4cc(OC)cc(OC)c4)CC3)cc2c1` [Example 10, 3,5-Dimethoxy-N-(1-{[7-(methoxymethyl)-2-naphthyl]methyl}piperidin-4-yl)benzamide] was 4.99 nM; that for `COCc1ccc2ccc(CN3CCC(NC(=O)c4cccc(OC)c4)CC3)cc2c1` [Example 13, 3-Methoxy-N-(1-{[7-(methoxymethyl)-2-naphthyl]methyl}piperidin-4-yl)benzamide] was 10.4 nM; that for `COc1cccc(C(=O)NC2CCN(Cc3ccc4ccc(COCCN5CCCC5)cc4c3)CC2)c1` [Example 36, 3-Methoxy-N-[1-({7-[(2-pyrrolidin-1-ylethoxy)methyl]-2-naphthyl}methyl)piperidin-4-yl]benzamide] was 6.11 nM.
Regarding `COc1cccc(C(=O)NC2CCN(Cc3ccc4ccc(COCCN(C)C)cc4c3)CC2)c1` [Example 37, N-{1-[(7-{[2-(dimethylamino)ethoxy]methyl}-2-naphthyl)methyl]piperidin-4-yl}-3-methoxybenzamide], the IC50 is 4.89 nM.
Turning to `COCCOCc1ccc2ccc(CN3CCC(NC(=O)c4cccc(C(C)=O)c4)CC3)cc2c1` [Example 90, 3-Acetyl-N-[1-({7-[(2-methoxyethoxy)methyl]-2-naphthyl}methyl)piperidin-4-yl]benzamide], the half-inhibitory concentration (IC50) worked out at 7.69 nM.
